Experiment [1] concerns the target T1, human GLP-1R wildtype (Homo sapiens, UniProt P43220). In words: cAMP accumulation. The class given is cell-based. The following applies: normalized to forskolin; n=3, duplicate; Figure S7. In general terms: cAMP levels reflect the balance of adenylyl cyclase and phosphodiesterase activity.
For experiment [2], the target named is T1, human GLP-1R wildtype. As to the kind of experiment: ERK1/2 phosphorylation. The experiment is classed as cell-based. The following applies: normalized to FBS; n=3, duplicate; Figure S7.
The subject of another experiment is human GLP-1R R190A. In words: cAMP production at R190A mutant. The experiment is classed as cell-based. The following applies: Figure S3.
The target in another experiment is exendin-4, P26349. As to the kind of experiment: radioligand inhibition binding (competition with 125I-exendin-4(9-39)). The settings on record: chain shown with the change;; read off a plot.

The results in this text go back to publication PMC4912689, “The Extracellular Surface of the GLP-1 Receptor Is a Molecular Trigger for Biased Agonism” (Cell, 2016).

Changes are numbered by the printed parent chain. Numbers in names are those of the source. Entries after “also recorded” stand apart in the source; their conditions may differ.

T1 sequence (P43220 24-463): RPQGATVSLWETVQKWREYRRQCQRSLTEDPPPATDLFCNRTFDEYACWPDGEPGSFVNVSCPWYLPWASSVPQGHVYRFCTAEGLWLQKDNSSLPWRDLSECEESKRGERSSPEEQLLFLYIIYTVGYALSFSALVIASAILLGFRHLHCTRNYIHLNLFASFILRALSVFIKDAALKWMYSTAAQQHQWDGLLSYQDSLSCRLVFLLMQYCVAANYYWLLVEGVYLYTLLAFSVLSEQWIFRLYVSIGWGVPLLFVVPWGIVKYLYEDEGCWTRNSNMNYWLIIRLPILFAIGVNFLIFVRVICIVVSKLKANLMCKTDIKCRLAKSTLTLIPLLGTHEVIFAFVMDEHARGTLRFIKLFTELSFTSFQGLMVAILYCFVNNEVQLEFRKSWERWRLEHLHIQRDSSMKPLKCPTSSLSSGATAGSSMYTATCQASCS
Description for human GLP-1R R190A: For cAMP assays, cells were stimulated for 30 min in the presence of the phosphodiesterase inhibitor IBMX and then lysed.
Dulbecco’s Modified Eagle’s Medium (DMEM) and Fluo-4 AM were purchased
from Invitrogen (Carlsbad, CA, USA). Foetal bovine serum (FBS) was purchased from Thermo
Electron Corporation (Melbourne, VIC, Australia). AlphaScreen reagents, 384-well opti and
proxiplates were purchased from PerkinElmer Life and Analytical Sciences (Waltham, MA, USA).
All other reagents were purchased from
Sigma-Aldrich (St. Louis, MO, USA) or BDH Merck (Melbourne, Vic, Australia) and were of an
Receptor mutagenesis. To study the influence of ECL amino acids, and R190 on receptor function,
the desired mutations were introduced to an N-terminally double c-myc labeled wild-type human GLP-
1R in the pEF5/FRT/V5-DEST destination vector (Invitrogen); this receptor had equivalent
Mutagenesis was carried out using oligonucleotides for
site-directed mutagenesis purchased from GeneWorks (HindMarsh, SA, Australia) and the
QuikChangeTM site-directed mutagenesis kit (Stratagene) and confirmed by automated sequencing
Cell culture: Stable transfections; Wild-type and mutant human GLP-1Rs were isogenically
integrated into FlpIn-Chinese hamster ovary (FlpInCHO) cells (Invitrogen) and selection of receptor-
expressing cells accomplished by treatment with 600 µg ml-1 hygromycin-B as previously described […]

GLP-1(9-36)NH2: the cAMP response result on human GLP-1R wildtype [1] was “unable to activate the cAMP pathway; also recorded: unable to generate a cAMP response”. Further, on human GLP-1R wildtype [2], the pERK1/2 response result is listed as “can still promote pERK1/2; also recorded: maintains the ability to promote pERK1/2”. Regarding “modified oxyntomodulin: oxyntomodulin with Q^3 substituted with E (HSEGTFTSDYSKYLDSRRAQDFVQWLMNTKRNRNNIA; Oxyntomodulin; UniProt P01275 53-89, looked up, variant Q3E)”, in the experiment on human GLP-1R R190A, the “requirement of R190 for cAMP production” value is on record as “required for cAMP production”.

B1: glucagon-like peptide 1 receptor (GLP-1R), wild-type, P43220 Q211A (protein)
chain: RPQGATVSLWETVQKWREYRRQCQRSLTEDPPPATDLFCNRTFDEYACWPDGEPGSFVNVSCPWYLPWASSVPQGHVYRFCTAEGLWLQKDNSSLPWRDLSECEESKRGERSSPEEQLLFLYIIYTVGYALSFSALVIASAILLGFRHLHCTRNYIHLNLFASFILRALSVFIKDAALKWMYSTAAQAHQWDGLLSYQDSLSCRLVFLLMQYCVAANYYWLLVEGVYLYTLLAFSVLSEQWIFRLYVSIGWGVPLLFVVPWGIVKYLYEDEGCWTRNSNMNYWLIIRLPILFAIGVNFLIFVRVICIVVSKLKANLMCKTDIKCRLAKSTLTLIPLLGTHEVIFAFVMDEHARGTLRFIKLFTELSFTSFQGLMVAILYCFVNNEVQLEFRKSWERWRLEHLHIQRDSSMKPLKCPTSSLSSGATAGSSMYTATCQASCS
For B1, the log10 ratio in the experiment with exendin-4, P26349 was -0.2 ΔpKi.

B2: glucagon-like peptide 1 receptor (GLP-1R), wild-type, P43220 E294A (protein)
chain: B1 chain with A188Q, E271A
With B2, the log10 ratio with exendin-4, P26349 was 0.1 ΔpKi.

B3: glucagon-like peptide 1 receptor (GLP-1R), wild-type, P43220 K202A (protein)
chain: B1 chain with K179A, A188Q
For the molecule B3, in the experiment with exendin-4, P26349, the log10 ratio was -0.25 ΔpKi.
